According to ChEMBL document CHEMBL1124516, “Synthesis of 2,3-diaziridinyl-1,4-naphthoquinone sulfonate derivatives as potential antineoplastic agents” (1989):

What was measured:
Mus musculus [1] = test: Average change in weight in mice bearing the L1210 Leukemia, when compound (20 mg/kg) was administered once daily beginning 24 hr after tumor implantation, for 6 consecutive days.; type: functional
Mus musculus [2] = test: Average change in weight in mice bearing the L1210 Leukemia, when compound (25 mg/kg) was administered once daily beginning 24 hr after tumor implantation, for 6 consecutive days.; type: functional
Mus musculus [3] = test: Average change in weight in mice bearing the L1210 Leukemia, when compound(30 mg/kg) was administered once daily beginning 24 hr after tumor implantation, for 6 consecutive days.; type: functional
L1210 [4] = test: Percentage survival time of L1210 (murine leukemia) inoculated mice following 25 mg/kg i.p.; type: functional, Mus musculus; conditions: route intraperitoneal
L1210 [5] = test: Percentage survival time of L1210 (murine leukemia) inoculated mice following 30 mg/kg i.p.; type: functional, Mus musculus; conditions: route intraperitoneal
L1210 [6] = test: Percentage survival time of L1210 (murine leukemia) inoculated mice following 20 mg/kg i.p.; type: functional, Mus musculus; conditions: route intraperitoneal
Mus musculus [7] = test: Number of mice surviving for a period greater than 50 days when a dose of 30 mg/Kg is administered intraperitoneally; tested in 5 mice; type: functional
Mus musculus [8] = test: Number of mice survived for a period greater than 50 days when a dose of 20 mg/Kg is administered intraperitoneally; tested in 5 mice; type: functional
L1210 [9] = test: Number L1210 (murine leukemia) inoculated mice surviving for >50 days following 25 mg/kg i.p.; type: functional, Mus musculus; conditions: route intraperitoneal
Mus musculus [10] = test: Average change in weight in mice bearing the B16 Melanoma, when compound(50 mg/kg) was administered intraperitoneally beginning 24 hr after tumor implantation, daily once for 6 consecutive days.; type: functional
Mus musculus [11] = test: Average change in weight in mice bearing the B16 Melanoma, when compound(150 mg/kg) was administered beginning 24 hr after tumor implantation, daily once for 6 consecutive days.; type: functional
Mus musculus [12] = test: Average change in weight in mice bearing the B16 Melanoma, when compound(100 mg/kg) was administered beginning 24 hr after tumor implantation, daily once for 6 consecutive days.; type: functional
Mus musculus [13] = test: The ratio of the survival time of treated to control animals x 100 in mice bearing B16 Melanoma, when compound (100 mg/kg) was administered intraperitoneally; type: functional
Mus musculus [14] = test: The ratio of the survival time of treated to control animals x 100 in mice bearing B16 Melanoma, when compound (150 mg/kg) was administered intraperitoneally; type: functional
Mus musculus [15] = test: The ratio of the survival time of treated to control animals x 100 in mice bearing B16 Melanoma, when compound (50 mg/kg) was administered intraperitoneally; type: functional
Mus musculus [16] = test: Survival of mice bearing B16 melanoma cells greater than 50 days when treated with a dose of 100 mg/Kg administered intraperitoneally; tested in 5 mice; type: functional
Mus musculus [17] = test: Survival of mice bearing B16 melanoma cells greater than 50 days when treated with a dose of 150 mg/Kg administered intraperitoneally; tested in 5 mice; type: functional
Mus musculus [18] = test: Survival of mice bearing B16 melanoma cells greater than 50 days when treated with a dose of 50 mg/Kg administered intraperitoneally; tested in 5 mice; type: functional

SMILES	Average change in body weight (Mus musculus [1]) [%]	Average body weight change (Mus musculus [2]) [%]	Average change in body weight (Mus musculus [3]) [%]	Activity (L1210 [4])	Activity (L1210 [5])	Activity (L1210 [6])	Survivals (Mus musculus [7])	Survivals (Mus musculus [8])	Survivals (L1210 [9])	Average body weight change (Mus musculus [10]) [%]	Average change in body weight (Mus musculus [11]) [%]	Average change in body weight (Mus musculus [12]) [%]	Activity (Mus musculus [13])	Activity (Mus musculus [14])	Activity (Mus musculus [15])	Survivals (Mus musculus [16])	Survivals (Mus musculus [17])	Survivals (Mus musculus [18])
Cc1ccc(S(=O)(=O)Oc2cccc3c2C(=O)C=C(N2CC2)C3=O)cc1	7.3	5.1	1.2	103	111	102	0	0	0	–	–	–	–	–	–	–	–	–
O=C1C(N2CC2)=C(N2CC2)C(=O)c2c(OS(=O)(=O)c3cccs3)cccc21	-2.3	-4.7	-6.4	–	–	165	5	4	5	-10.8	-22.7	-18.2	161	77	156	–	–	–
O=C1C(N2CC2)=C(N2CC2)C(=O)c2c(OS(=O)(=O)Cc3ccccc3)cccc21	2.4	3.1	-3	153	141	127	0	0	0	–	–	–	–	–	–	–	–	–
CCc1ccc(S(=O)(=O)Oc2cccc3c2C(=O)C(N2CC2)=C(N2CC2)C3=O)cc1	8.4	13.6	9.9	151	172	147	0	0	0	–	–	–	–	–	–	–	–	–
O=C1C(N2CC2)=C(N2CC2)C(=O)c2c(OS(=O)(=O)c3ccc([N+](=O)[O-])cc3)cccc21	-11.1	-12.9	-13.1	293	152	402	4	4	3	–	–	–	–	–	–	–	–	–
CC(C)(C)c1ccc(S(=O)(=O)Oc2cccc3c2C(=O)C(N2CC2)=C(N2CC2)C3=O)cc1	12.8	11.8	6.7	98	98	104	0	0	0	–	–	–	–	–	–	–	–	–
O=C1C(N2CC2)=C(N2CC2)C(=O)c2c(OS(=O)(=O)c3ccc(F)cc3)cccc21	0.3	-5.7	-3.4	200	–	–	5	5	4	-5.2	-20.3	-14.3	182	177	159	0	0	0
CC(C)c1cc(C(C)C)c(S(=O)(=O)Oc2cccc3c2C(=O)C(N2CC2)=C(N2CC2)C3=O)c(C(C)C)c1	7.8	9	7.4	102	100	100	0	0	0	–	–	–	–	–	–	–	–	–
CCCCCCCCCCCCCCCCS(=O)(=O)Oc1cccc2c1C(=O)C(N1CC1)=C(N1CC1)C2=O	13	9.9	9.7	91	91	96	0	0	0	–	–	–	–	–	–	–	–	–
Cc1cc(C)c(S(=O)(=O)Oc2cccc3c2C(=O)C(N2CC2)=C(N2CC2)C3=O)c(C)c1	-0.4	-2.5	-2.6	113	124	113	0	0	0	–	–	–	–	–	–	–	–	–
O=C1C(N2CC2)=C(N2CC2)C(=O)c2c(OS(=O)(=O)c3ccc(Br)cc3)cccc21	12.2	11.2	8.3	165	179	214	0	0	0	1.1	0.7	2.5	153	151	143	–	–	–
CN(C)c1cccc2c(S(=O)(=O)Oc3cccc4c3C(=O)C(N3CC3)=C(N3CC3)C4=O)cccc12	2.2	3.8	3.9	115	117	110	0	0	0	–	–	–	–	–	–	–	–	–
O=C1C(N2CC2)=C(N2CC2)C(=O)c2c(OS(=O)(=O)c3ccc([N+](=O)[O-])cc3[N+](=O)[O-])cccc21	2.3	4.8	-1.3	105	100	111	0	0	0	–	–	–	–	–	–	–	–	–
O=C1C(N2CC2)=C(N2CC2)C(=O)c2c(OS(=O)(=O)c3cccc4cccnc34)cccc21	-6.6	-6.5	-8	418	291	332	3	3	4	-1.7	-14.3	-8.2	219	239	195	–	–	–
O=C1C(N2CC2)=C(N2CC2)C(=O)c2c(OS(=O)(=O)c3cccc4ccccc34)cccc21	14.6	9.2	13.7	104	104	107	0	0	0	–	–	–	–	–	–	–	–	–
O=C1C(N2CC2)=C(N2CC2)C(=O)c2c(OS(=O)(=O)c3ccc(I)cc3)cccc21	14.6	11.1	15.8	146	146	127	0	0	0	4.1	-4.1	0.6	138	141	132	–	–	–
CC1(C)C2CCC1(CS(=O)(=O)Oc1cccc3c1C(=O)C(N1CC1)=C(N1CC1)C3=O)C(=O)C2 (centres undefined)	-9.3	-3.5	-9.2	148	168	136	0	0	0	–	–	–	–	–	–	–	–	–
O=C1C(N2CC2)=C(N2CC2)C(=O)c2c(OS(=O)(=O)CCCCl)cccc21	-7.5	-12.1	-27.6	145	150	123	0	0	0	–	–	–	–	–	–	–	–	–
O=C1C(N2CC2)=C(N2CC2)C(=O)c2c(OS(=O)(=O)/C=C/c3ccccc3)cccc21	-3.5	1.9	-1	130	150	132	0	0	0	–	–	–	–	–	–	–	–	–
CCCCS(=O)(=O)Oc1cccc2c1C(=O)C(N1CC1)=C(N1CC1)C2=O	0.1	-10.9	-11.3	124	131	131	0	0	0	–	–	–	–	–	–	–	–	–
